Patent publication US20120114745A1, “METHOD FOR TREATING OR AMELIORATING MUCOCUTANEOUS OR OCULAR TOXICITIES” (priority 2009, published 2012)

Tested on: CCL2
Assay: ELISA of CCL2 levels in the supernatant of keratinocyte cultures treated with EGFR inhibitor PD168393 and/or HDAC inhibitors
Type: cell-based
Conditions: then PD168393 24 hours (FIG. 1)
Source text: Results are expressed as the mean of three independent experiments ±SD.

SMILES	effect on PD168393-induced up-regulation of CCL2 levels (keratinocytes pre-treated with HDAC inhibitor 5 nM for 2 hours)	effect on PD168393-induced up-regulation of CCL2 levels (keratinocytes pre-treated with HDAC inhibitor for 2 hours)
CC(/C=C/C(=O)NO)=C\[C@@H](C)C(=O)c1ccc(N(C)C)cc1 [trichostatin A]	suppressed	
CCCC(CCC)C(=O)O [valproic acid]		suppressed
